pIC50: −log10 of the molar value. ≈ marks a conversion by molar mass, not a printed value.
Columns and labels:
OS-RC-2 = assay: Antiproliferative activity against human OS-RC-2 cells assessed as cell growth inhibition measured after 72 hrs by CCK-8 assay; type: functional, cell-based; conditions: OS-RC-2, 72 h
A549 [1] = assay: Cytotoxicity against human A549 cells assessed as cell growth inhibition incubated for 48 hrs by CCK-8 assay; type: functional, cell-based; conditions: A549, 48 h
HCT-116 [2] = assay: Cytotoxicity against human HCT-116 cells assessed as cell growth inhibition incubated for 48 hrs by CCK-8 assay; type: functional, cell-based; conditions: HCT-116, 48 h
[3] = test system: Pseudopestalotiopsis theae; assay: Antifungal activity against Pestalotiopsis theae assessed as fungal cell growth inhibition; type: functional; conditions: read-out: ED50 (the source's name)
[4] = Antioxidant activity assessed as free radical scavenging activity incubated for 30 mins by microplate reader analysis; type: functional
A-375 = assay: Cytotoxicity against human A-375 cells assessed as cell growth inhibition by MTT assay; type: functional, cell-based
A549 [5] = assay: Cytotoxicity against human A549 cells assessed as cell growth inhibition by MTT assay; type: functional, cell-based
HepG2 [6] = assay: Cytotoxicity against human HepG2 cells assessed as cell growth inhibition by MTT assay; type: functional, cell-based
MCF7 [7] = assay: Cytotoxicity against human MCF7 cells assessed as cell growth inhibition by MTT assay; type: functional, cell-based
HL-60 [8] = assay: Cytotoxicity against human HL-60 cells assessed as cell growth inhibition measured after 72 hrs by MTT assay; type: functional, cell-based; conditions: HL-60, 72 h
NCI-H1975 = assay: Cytotoxicity against human NCI-H1975 cells assessed as cell growth inhibition measured after 72 hrs by MTT assay; type: functional, cell-based; conditions: NCI-H1975, 72 h
[9] = biological target: Phosphotyrosine-protein phosphatase PTPB (Mycobacterium tuberculosis, UniProt P96830); assay: Inhibition of N-terminal His6-tagged Mycobacterium tuberculosis H37Rv PTPB using 6,8-difluoromethylumbelliferyl phosphate as substrate incubated for 30 mins by fluorescence based analysis
RAW264.7 = assay: Antiinflammatory activity against LPS-induced mouse RAW264.7 cells assessed as inhibition of NO production measured after 24 hrs […]; type: functional, cell-based; conditions: RAW264.7, 24 h
P388 = assay: Cytotoxicity against mouse P388 cells assessed as cell growth inhibition measured after 72 hrs by MTT assay; type: functional, cell-based; conditions: p388
MCF7 [10] = assay: Cytotoxicity against human MCF7 cells assessed as cell growth inhibition; type: functional, cell-based
[11] = Cytotoxicity against human HM02 cells assessed as cell growth inhibition; type: functional
HepG2 [12] = assay: Cytotoxicity against human HepG2 cells assessed as cell growth inhibition; type: functional
[13] = test system: Colletotrichum gloeosporioides; assay: Antifungal activity against Colletotrichum gloeosporioides assessed as inhibition of fungal growth measured after 72 hrs by micro plate reader analysis; type: functional
[14] = Antioxidant activity assessed as free radical scavenging activity incubated for 30 mins under dark condition by microplate reader analysis; type: functional
HCT-116 [15] = assay: Cytotoxicity against human HCT-116 cells assessed as cell growth inhibition by SRB assay; type: functional, cell-based
SW-620 = assay: Cytotoxicity against human SW-620 cells assessed as cell growth inhibition by SRB assay; type: functional, cell-based
[16] = biological target: Rho-associated protein kinase 2 (Homo sapiens, UniProt O75116); assay: Inhibition of ROCK2 (unknown origin) by HTRF kinase assay
Candida albicans = assay: Antifungal activity against Candida albicans assessed as fungal growth inhibition measured after 20 hrs; type: functional
[17] = Antiproliferative activity against human Pancreatic cancer cell assessed as cell growth inhibition measured after 24 hrs by CCK-8 assay; type: functional, cell-based
[18] = test system: Trypanosoma brucei brucei; assay: Antitrypanosomal activity against Trypanosoma brucei brucei GUTat3.1 assessed as parasite growth inhibition measured after 24 hrs by alamar blue staining based analysis; type: functional, organism-based; conditions: GUTat3.1, 24 h
HL-60 [19] = assay: Antiproliferative activity against human HL-60 cells assessed as cell growth inhibition by MTT assay; type: functional, cell-based
A549 [20] = assay: Antiproliferative activity against human A549 cells assessed as cell growth inhibition by MTT assay; type: functional, cell-based
SGC-7901 = assay: Cytotoxicity against human SGC-7901 cells assessed as cell growth inhibition measured after 48 hrs by MTT assay; type: functional, cell-based; conditions: SGC-7901, 48 h

Phosphotyrosine-protein phosphatase PTPB, sequence (P96830 whole entry): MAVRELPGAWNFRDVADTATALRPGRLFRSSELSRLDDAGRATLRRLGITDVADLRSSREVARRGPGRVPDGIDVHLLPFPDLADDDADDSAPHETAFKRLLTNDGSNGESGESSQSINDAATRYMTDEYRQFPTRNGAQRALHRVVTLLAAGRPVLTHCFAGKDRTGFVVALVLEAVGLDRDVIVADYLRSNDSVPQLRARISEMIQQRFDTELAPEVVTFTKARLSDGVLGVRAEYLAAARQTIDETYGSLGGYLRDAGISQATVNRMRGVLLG
Rho-associated protein kinase 2, sequence (O75116 whole entry): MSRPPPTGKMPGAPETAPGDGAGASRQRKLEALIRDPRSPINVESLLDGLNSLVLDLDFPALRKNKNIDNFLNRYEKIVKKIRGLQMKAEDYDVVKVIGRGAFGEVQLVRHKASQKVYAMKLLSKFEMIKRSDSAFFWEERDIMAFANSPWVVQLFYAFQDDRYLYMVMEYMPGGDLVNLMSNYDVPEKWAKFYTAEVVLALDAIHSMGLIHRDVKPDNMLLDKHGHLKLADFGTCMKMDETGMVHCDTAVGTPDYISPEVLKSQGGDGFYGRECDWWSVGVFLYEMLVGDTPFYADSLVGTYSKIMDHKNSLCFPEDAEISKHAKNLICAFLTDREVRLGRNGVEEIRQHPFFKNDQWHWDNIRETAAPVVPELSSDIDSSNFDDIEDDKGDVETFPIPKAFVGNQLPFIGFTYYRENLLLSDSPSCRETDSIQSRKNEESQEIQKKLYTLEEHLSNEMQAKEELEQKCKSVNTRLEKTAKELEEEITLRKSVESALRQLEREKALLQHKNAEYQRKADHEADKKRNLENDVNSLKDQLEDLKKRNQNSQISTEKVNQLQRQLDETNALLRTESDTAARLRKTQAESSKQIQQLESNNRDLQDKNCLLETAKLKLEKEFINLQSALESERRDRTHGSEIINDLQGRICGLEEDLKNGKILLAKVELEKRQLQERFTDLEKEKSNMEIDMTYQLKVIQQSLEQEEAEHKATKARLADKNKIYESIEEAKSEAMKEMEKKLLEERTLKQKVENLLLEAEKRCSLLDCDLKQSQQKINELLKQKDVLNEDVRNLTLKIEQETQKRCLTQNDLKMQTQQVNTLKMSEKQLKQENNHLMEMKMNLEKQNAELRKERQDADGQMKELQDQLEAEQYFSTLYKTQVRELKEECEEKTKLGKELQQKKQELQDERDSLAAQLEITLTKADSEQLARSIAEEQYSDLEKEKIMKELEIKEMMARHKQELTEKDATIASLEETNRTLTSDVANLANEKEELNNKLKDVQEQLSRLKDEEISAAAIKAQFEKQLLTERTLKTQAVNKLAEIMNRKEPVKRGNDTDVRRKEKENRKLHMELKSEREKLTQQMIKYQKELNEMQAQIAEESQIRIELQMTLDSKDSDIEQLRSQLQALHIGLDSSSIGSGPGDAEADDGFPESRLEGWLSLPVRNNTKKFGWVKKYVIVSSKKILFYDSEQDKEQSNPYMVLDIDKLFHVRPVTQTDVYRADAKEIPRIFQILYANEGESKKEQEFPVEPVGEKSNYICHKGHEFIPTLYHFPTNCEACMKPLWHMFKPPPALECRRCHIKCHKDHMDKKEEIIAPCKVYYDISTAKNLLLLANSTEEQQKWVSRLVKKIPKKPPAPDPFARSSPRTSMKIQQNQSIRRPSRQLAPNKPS

`C/C=C(\C)[C@H](O)[C@H](C)/C=C(/C=C/C/C(C)=C/Cc1nc(OC)c(OC)c(O)c1C)CC` gave a pIC50 (OS-RC-2) of 5.35.

`C[C@@H]1O[C@@H](Oc2ccc(-c3cc(=O)c4ccc(O[C@H]5C[C@H](O)[C@H](O)[C@H](C)O5)cc4o3)cc2)C[C@H](O)[C@@H]1O` showed an IC50 (A549 [1]) of 13.5 µg/mL (≈ 26.2 µM) and an IC50 (HCT-116 [2]) of 13.5 µg/mL (≈ 26.2 µM).

Work on `CC(=C\C(=O)O)/C=C(\C)CCCCCC[C@H]1OC(=O)[C@@H]1CO` yielded an EC50 [3] of 42.3 µg/mL (≈ 136 µM).

Molecule `O=C(O)CCCNC(=O)c1ccc(O)c(O)c1` has a pIC50 [4] of 5.33.

For `COc1ccc(C[C@@H]2NC(=O)[C@@]34OC(=O)O/C=C/[C@@](C)(O)C(=O)[C@@H](C)C/C=C/[C@H]3[C@@H]3O[C@]3(C)[C@@H](C)[C@@H]24)cc1`, the pIC50 (A-375) was 6.33, the pIC50 (A549 [5]) was 6.33 and the pIC50 (HepG2 [6]) was 6.33. For the same molecule, the pIC50 (MCF7 [7]) was 6.33.

`C/C=C/C1=CC(=O)[C@]2(C(=O)c3c(OC)cc(OC)cc3C(=O)OC)O[C@@H]2O1` gave a pIC50 (HL-60 [8]) of 5.43 and a pIC50 (NCI-H1975) of 5.43.

`CC(C)[C@@H](C)/C=C\[C@@H](C)[C@@]1(C)C[C@H]2C3=C4[C@@H](C=C5C[C@@H](O)CC[C@]5(C)[C@H]4CC[C@@]31C)[C@H](C(=O)O)[C@H]2C(=O)O` showed a pIC50 [9] of 4.52 and a pIC50 (RAW264.7) of 5.44.

In the case of `C/C=C/C1=CC(=O)[C@@]2(C(=O)c3c(OC)cc(OC)cc3C(=O)OC)O[C@H]2O1`, the pIC50 (HL-60 [8]) was 5.43 and the pIC50 (NCI-H1975) was 5.43.

Molecule `C=CC(C)(C)c1[nH]c2ccccc2c1/C=C1\NC(=O)[C@]2(C[C@H](C)C=C[C@@H]2CCc2c(O)cc(CC=C(C)C)c(O)c2C=O)NC1=O` (stereo in doubt) has a pIC50 (P388) of 5.60.

`O=C(NCCCO)c1ccc(O)c(O)c1` showed a pIC50 [4] of 5.33.

Molecule `CC(=O)OCCCCNC(=O)c1ccc(O)c(O)c1` has a pIC50 [4] of 5.33.

`CC(C)CCC[C@H]1CCCCC(=O)O1` gave a GI50 (MCF7 [10]) of 0.11 µg/mL (≈ 0.555 µM), a GI50 [11] of 0.11 µg/mL (≈ 0.555 µM) and a GI50 (HepG2 [12]) of 0.11 µg/mL (≈ 0.555 µM).

In the case of `CC1=CC[C@]23C[C@@H]1C[C@@](C)(O)[C@H]2[C@H](O)C[C@@H]3C`, the MIC [13] was 1 µg/mL (≈ 4.23 µM).

With `C=C1C(=O)CC2OC(=O)C(=C(O)C2CC)CCC2(C)CC(C)C(O2)C(C)C1OC` (stereo not drawn) the pIC50 [14] was 5.62.

`C[C@@H]1O[C@@H](Oc2ccc(C3COc4cc(O)ccc4C3=O)cc2)C[C@H](O)[C@@H]1O` (stereo partly drawn) gave an IC50 (A549 [1]) of 13.5 µg/mL (≈ 34.9 µM) and an IC50 (HCT-116 [2]) of 13.5 µg/mL (≈ 34.9 µM).

Molecule `C=C1C(O)[C@@H]2/C=C/C[C@H](C)C(=O)[C@](C)(O)/C=C/OC(=O)O[C@]23C(=O)N[C@@H](Cc2ccc(OC)cc2)[C@@H]3[C@@H]1C` (stereo partly drawn) has a pIC50 (A-375) of 6.33, a pIC50 (A549 [5]) of 6.33 and a pIC50 (HepG2 [6]) of 6.33. The pIC50 (MCF7 [7]) was 6.33.

`Cc1cccc2cc3c(c(O)c12)C(=O)CC[C@@H]3O` showed a pIC50 (HCT-116 [15]) of 6.20 and a pIC50 (SW-620) of 6.20.

For `CCOC(=O)[C@H](Cc1c(O)cc(C)c2c(O)c3c(cc12)[C@@H](O)CCC3=O)C(=O)OC`, the pIC50 [16] was 6.02.

With `CCCC1C(=O)C2CCC3(C)CC(C)C(O3)C(O)/C=C(\C)C(=O)CC1OC2=O` (stereo not drawn) the pIC50 [14] was 5.62.

Molecule `CCCCCC[C@H]1C(=O)O[C@H](C)[C@H](NC(=O)c2cccc(NC=O)c2O)C(=O)O[C@@H](C)[C@@H]1OC(C)=O` has an MIC (Candida albicans) of 5 µg/mL (≈ 9.87 µM).

`CC[C@H]1[C@@H]2C=C[C@@H]3[C@H]4C/C=C\C(=O)NCCC[C@H]5NC(=O)C(=C5O)C(=O)/C=C/[C@@H]4C[C@@H]3[C@H]2C[C@H]1C` showed a pIC50 [17] of 5.89.

For `CC(=O)/C(=C\c1ccc(O)cc1)OC(Cc1c[nH]c2ccccc12)C(=O)O` (stereo not drawn), the pIC50 [18] was 5.28.

`COC1=C(CO)O[C@@H]2C[C@@]1(OC)n1c3ccccc3c3c4c(c5c6ccccc6n2c5c31)C(=O)NC4` gave a pIC50 (HL-60 [19]) of 5.85 and a pIC50 (A549 [20]) of 5.30.

`CC[C@H]1/C=C/C[C@H](CC(C)C)OC(=O)/C(C)=C\[C@H]2C(=O)NC3=CC(=O)c4c(cc(C)c(O)c4C(=O)CC1)[C@@]32O` gave a pIC50 (SGC-7901) of 5.55.

In the case of `CC[C@H]1[C@H]2[C@H](C[C@H]1C)[C@H]1C[C@H]3/C=C/C(=O)C4=C(O)[C@@H](CCCNC(=O)/C=C\C[C@@H]3[C@H]1[C@@H]1O[C@@H]12)NC4=O`, the pIC50 [17] was 5.89.

Molecule `CCCCC[C@H]1C(=O)O[C@H](C)[C@H](NC(=O)c2cccc(NC=O)c2O)C(=O)O[C@@H](C)[C@@H]1OC(=O)[C@@H](C)C(C)C` has an MIC (Candida albicans) of 5 µg/mL (≈ 9.11 µM).

`COc1cc(C)c2c(O)c3c(cc2c1)[C@@H](O)CCC3=O` gave a pIC50 (HCT-116 [15]) of 6.20 and a pIC50 (SW-620) of 6.20.

From ChEMBL document CHEMBL5107956, “Natural products from mangrove sediments-derived microbes: Structural diversity, bioactivities, biosynthesis, and total synthesis” (Eur J Med Chem, 2022)
